Patent publication US20110104301A1, “METHODS OF REDUCING PAIN AND INFLAMMATION” (Georgetown University, A Congressionally Chartered …, priority 2008, published 2011)
Entries after “also recorded” stand apart in the source; their conditions may differ.

Legend:
TRPV1 [1] = target: T1, TRPV1 (Mus musculus, UniProt Q704Y3); test: Patch-clamp of capsaicin-sensitive sensory neurons (nodose ganglia); type: cell-based
T1 construct: endogenous in cells; host or cells: primary nodose ganglion neurons of adult C57Bl6/J mice
T1 sequence (Q704Y3 whole entry): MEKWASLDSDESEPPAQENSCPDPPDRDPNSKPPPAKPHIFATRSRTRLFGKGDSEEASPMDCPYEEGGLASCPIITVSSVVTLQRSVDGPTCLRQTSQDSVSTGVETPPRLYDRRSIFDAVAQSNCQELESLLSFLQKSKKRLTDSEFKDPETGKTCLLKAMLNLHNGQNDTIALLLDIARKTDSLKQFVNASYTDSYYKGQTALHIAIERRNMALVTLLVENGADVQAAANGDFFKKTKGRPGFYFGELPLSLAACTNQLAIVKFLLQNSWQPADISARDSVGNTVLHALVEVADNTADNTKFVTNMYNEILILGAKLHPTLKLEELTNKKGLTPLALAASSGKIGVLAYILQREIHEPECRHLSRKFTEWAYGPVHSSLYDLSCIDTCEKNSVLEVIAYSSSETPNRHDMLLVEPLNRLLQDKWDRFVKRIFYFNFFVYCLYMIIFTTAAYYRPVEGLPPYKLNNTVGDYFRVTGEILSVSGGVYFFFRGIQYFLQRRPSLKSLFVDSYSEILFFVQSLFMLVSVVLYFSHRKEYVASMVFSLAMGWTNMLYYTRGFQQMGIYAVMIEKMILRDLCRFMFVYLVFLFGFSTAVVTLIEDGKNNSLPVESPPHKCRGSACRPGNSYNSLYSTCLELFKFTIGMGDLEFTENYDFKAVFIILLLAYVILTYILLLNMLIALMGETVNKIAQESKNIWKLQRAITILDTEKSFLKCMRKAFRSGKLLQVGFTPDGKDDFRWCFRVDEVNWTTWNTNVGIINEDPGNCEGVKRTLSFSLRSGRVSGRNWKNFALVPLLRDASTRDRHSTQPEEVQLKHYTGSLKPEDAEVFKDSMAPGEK
Experimental: (§1) HEK cell and sensory neuron electrophysiology. HEK 293F cells (Invitrogen) were cultured in DMEM supplemented with 1% non-essential amino acids and 10% fetal calf serum. Cell cultures were maintained at 37° C. with 5% CO2. Cells were transfected with rat TRPV 1 (gift of David Julius), and GFP cDNA using Lipofectamine™ Transfection Reagent (Invitrogen) and used 24-48 h after transfection. Nodose ganglia were obtained from adult mice (C57B16/J and TRPV1-null), cut, digested with collagenase, and cultured in Neurobasal +2% B-27 medium (Invitrogen), 0.1% L-glutamine and 1% penicillin/streptomycin on poly-D lysine-coated glass coverslips at 37° C. in 5% CO2. Neurons were used within 24-36 hr of culture. Whole-cell and single-channel patch clamp recordings were performed using an EPC8 amplifier (HEKA). The current signal was low-pass filtered at 1-3 kHz and sampled at 4 kHz. Currents were further filtered for display purposes. For whole-cell and excised patch recordings the bath solution contained (in mM): 140 NaCl, 4 KCl, 1 MgCl2, 1 EGTA, 10 HEPES, 10 glucose pH 7.3 (290 mOsm). The pipette solution contained (in mM): 140 CsC1, 10 NaCl, 10 HEPES, 5 EGTA, 2 Mg ATP and 0.03 GTP, pH 7.3. The peak amplitudes measured either during the prepulse or the tail current (within 1 ms) were plotted as a function of the test potential and normalized to the maximal current obtained from the following Boltzmann function: […]

TRPV1 [2] = target: T2, TRPV1 (Rattus norvegicus, UniProt O35433); test: Whole-cell patch-clamp of TRPV1-expressing HEK293 cells; type: cell-based; set-up: expressed in transfected cells; host or cells: HEK 293F (Invitrogen), co-transfected with GFP cDNA; conditions: for Shifts in TRPV1 V1/2 and increases in maximal conductance by alcohols: decanol 0.6 mM, dodecanol 0.1 mM
T2 sequence (O35433 whole entry): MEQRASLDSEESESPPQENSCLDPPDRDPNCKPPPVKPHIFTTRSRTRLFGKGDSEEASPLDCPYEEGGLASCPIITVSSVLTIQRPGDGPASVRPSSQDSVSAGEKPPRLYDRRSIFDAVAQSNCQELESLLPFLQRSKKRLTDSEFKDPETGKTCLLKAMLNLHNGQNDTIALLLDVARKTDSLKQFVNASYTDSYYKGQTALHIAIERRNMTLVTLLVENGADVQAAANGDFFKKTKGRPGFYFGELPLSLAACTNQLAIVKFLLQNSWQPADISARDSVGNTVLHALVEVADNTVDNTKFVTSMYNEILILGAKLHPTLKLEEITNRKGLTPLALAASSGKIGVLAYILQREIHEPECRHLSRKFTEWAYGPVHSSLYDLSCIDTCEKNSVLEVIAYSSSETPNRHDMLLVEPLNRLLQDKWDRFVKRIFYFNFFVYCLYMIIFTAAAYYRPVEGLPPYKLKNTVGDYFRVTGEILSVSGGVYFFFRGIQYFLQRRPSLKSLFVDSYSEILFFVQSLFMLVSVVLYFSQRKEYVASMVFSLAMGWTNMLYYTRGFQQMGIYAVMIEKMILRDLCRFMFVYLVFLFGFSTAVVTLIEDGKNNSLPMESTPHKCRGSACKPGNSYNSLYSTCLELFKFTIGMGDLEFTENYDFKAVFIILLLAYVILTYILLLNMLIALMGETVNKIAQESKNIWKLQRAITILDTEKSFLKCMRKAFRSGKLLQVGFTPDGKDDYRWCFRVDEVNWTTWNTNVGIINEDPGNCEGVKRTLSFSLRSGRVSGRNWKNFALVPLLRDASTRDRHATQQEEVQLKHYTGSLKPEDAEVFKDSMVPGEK
Experimental: (§2) Electrophysiology. […] Whole-cell and single-channel patch-clamp recordings were performed by using an EPC8 amplifier (HEKA Electronics). For whole-cell and excised patch recordings the bath solution contained 140 mMNaCl, 4 mMKCl, 1 mMMgCl2, 1.2 mMCaCl2, 10 mMHepes, 10 mM glucose, pH 7.3. For cell-attached experiments, NaCl was replaced with KCl in the bath solution. […] For neuronal recording NaCl was replaced with K-gluconate (plus 1 mMATP, 0.2 mM GTP). Solutions were applied via a gravity-fed system. […] Voltage-dependent properties were measured as described in Matt and Ahern, J. Physiol. […] The baseline currents under control conditions were subtracted. For cell-attached experiments, peak amplitudes were measured from all-points histograms, and open probability was measured as NPo>750 ms. Defolliculated Xenopus laevis oocytes were injected with ≈10 ng of hTRPA1 (gift of Ardem Patapoutian, The Scripps Research Institute, La Jolla, Calif.).
as §1, with “HEK 293F cells (Invitrogen) were cultured in DMEM supplemented with 1% non-essential amino acids and 10% fetal calf serum.” left out

[3] = rat at 37° C.; cited from earlier work
TRPA1 = target: T3, TRPA1 (Rattus norvegicus, UniProt Q6RI86); test: Whole-cell patch-clamp of TRPA1-expressing HEK293 cells; type: cell-based; conditions: for Activation of TRPA1 currents by VGAs: 0.9 mM, voltage-clamped HEK293 cells
T3 construct: expressed in transfected cells; host or cells: HEK 293F
T3 sequence (Q6RI86 whole entry): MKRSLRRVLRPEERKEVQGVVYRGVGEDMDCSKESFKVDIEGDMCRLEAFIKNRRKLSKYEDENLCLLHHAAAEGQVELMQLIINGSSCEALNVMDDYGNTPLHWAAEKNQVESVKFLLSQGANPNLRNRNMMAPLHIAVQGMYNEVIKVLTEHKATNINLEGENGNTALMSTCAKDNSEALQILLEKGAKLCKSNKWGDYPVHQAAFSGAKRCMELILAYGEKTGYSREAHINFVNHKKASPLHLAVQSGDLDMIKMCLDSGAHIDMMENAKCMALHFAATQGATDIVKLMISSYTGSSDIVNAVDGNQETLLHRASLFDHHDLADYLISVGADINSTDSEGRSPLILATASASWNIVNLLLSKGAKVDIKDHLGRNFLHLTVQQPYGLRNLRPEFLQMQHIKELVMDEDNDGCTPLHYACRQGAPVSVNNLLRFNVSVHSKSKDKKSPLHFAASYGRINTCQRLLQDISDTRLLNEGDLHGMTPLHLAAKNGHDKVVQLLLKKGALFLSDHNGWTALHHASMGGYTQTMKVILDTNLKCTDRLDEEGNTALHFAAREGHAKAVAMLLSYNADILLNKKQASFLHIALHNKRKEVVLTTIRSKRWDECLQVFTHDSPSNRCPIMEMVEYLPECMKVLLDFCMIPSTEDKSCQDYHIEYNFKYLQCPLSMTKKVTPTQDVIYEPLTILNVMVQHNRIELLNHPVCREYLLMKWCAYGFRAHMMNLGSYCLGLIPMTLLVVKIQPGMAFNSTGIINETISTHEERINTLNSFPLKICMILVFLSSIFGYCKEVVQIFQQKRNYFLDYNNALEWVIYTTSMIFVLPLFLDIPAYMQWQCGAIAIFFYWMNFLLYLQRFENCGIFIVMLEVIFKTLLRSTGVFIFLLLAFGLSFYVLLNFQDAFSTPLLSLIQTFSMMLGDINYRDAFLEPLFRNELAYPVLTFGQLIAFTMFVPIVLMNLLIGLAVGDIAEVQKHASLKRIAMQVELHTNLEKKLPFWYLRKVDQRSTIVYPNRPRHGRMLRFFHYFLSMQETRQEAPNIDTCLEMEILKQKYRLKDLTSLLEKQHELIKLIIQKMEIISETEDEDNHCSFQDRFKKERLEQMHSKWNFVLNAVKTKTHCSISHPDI
Experimental: as §2
Volatile General Anesthetics and Chemicals. Saturated stock solutions of volatile GAs were prepared in gas-tight bottles by dissolving excess anesthetic agents in bath solutions overnight. From these stock solutions fresh dilutions were made up every 40-60 min. Concentrations of GAs in the bath solutions were verified by using a modified head-space gas chromatography method. […] Alcohols with <6 carbons were dissolved directly into extracellular solution, and alcohols containing 6 carbons or more were dissolved in DMSO and then diluted into extracellular solutions that were sonicated for 20 min. All other drugs were prepared as stock solutions in DMSO or ethanol and diluted into physiological solution before experiments.

TRPM8 = target: T4, TRPM8 (Rattus norvegicus, UniProt Q8R455); test: Whole-cell patch-clamp of TRPM8-expressing HEK293 cells; type: cell-based
T4 construct: expressed in transfected cells; host or cells: HEK 293F
T4 sequence (Q8R455 whole entry): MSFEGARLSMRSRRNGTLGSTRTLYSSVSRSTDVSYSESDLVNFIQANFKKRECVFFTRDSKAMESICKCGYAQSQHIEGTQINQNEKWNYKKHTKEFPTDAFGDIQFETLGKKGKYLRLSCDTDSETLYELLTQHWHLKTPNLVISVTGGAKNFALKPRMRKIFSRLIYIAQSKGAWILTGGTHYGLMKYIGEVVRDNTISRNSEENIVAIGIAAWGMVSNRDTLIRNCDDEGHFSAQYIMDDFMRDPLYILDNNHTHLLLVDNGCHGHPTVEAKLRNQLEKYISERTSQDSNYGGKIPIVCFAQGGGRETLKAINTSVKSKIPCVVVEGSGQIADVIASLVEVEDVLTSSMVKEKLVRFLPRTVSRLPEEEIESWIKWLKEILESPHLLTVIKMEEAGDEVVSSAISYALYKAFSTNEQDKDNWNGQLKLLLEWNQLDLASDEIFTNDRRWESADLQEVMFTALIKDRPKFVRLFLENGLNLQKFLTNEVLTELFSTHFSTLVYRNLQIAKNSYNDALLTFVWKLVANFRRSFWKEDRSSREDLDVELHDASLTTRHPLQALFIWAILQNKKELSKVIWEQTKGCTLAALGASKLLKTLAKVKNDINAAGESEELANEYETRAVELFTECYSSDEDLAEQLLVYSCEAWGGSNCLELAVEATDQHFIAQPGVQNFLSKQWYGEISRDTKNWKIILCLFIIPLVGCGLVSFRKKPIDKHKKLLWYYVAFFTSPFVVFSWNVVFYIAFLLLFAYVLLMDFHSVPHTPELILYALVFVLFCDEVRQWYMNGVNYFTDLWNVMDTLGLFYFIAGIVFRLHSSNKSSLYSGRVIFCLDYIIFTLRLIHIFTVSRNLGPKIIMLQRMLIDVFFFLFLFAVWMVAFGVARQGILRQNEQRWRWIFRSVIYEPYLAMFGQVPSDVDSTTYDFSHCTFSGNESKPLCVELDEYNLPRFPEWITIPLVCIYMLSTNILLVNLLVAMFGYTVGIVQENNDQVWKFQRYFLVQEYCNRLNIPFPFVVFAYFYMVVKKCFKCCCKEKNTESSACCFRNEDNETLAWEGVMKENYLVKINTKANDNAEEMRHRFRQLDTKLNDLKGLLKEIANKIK
Experimental: as §2

mice [4] = test: Nocifensive behavior after topical application to the nasal epithelium; type: in vivo, mouse; conditions: capsaicin 10 mM
Experimental: (§3) Behavioral Experiments and Neurogenic Inflammation. Animal experiments were performed according to National Institutes of Health and institutional guidelines. […] Nocifensive behavior (nose wiping in sawdust bedding) was recorded for 2 min with a video camera and the duration was subsequently measured by a blinded observer. […] Electromyographic (EMG) activity was recorded via platinum electrodes from the semitendinosus muscle in mice anesthetized with urethane (1.3 g/kg) as described in Ando and Watanabe, Br J. Anaesth. […] The EMG signal was recorded by using a low-pass cutoff frequency of 200 Hz and integrated offline by using a 100-ms time window. […] Ear thickness was recorded by using an engineer's micrometer (Mitutoyo Corp.) before mustard-oil application and thereafter every 15 min for 60 min of anesthesia and 60 min of recovery.

[5] = system: DRG neurons from TRPA1-null mice; test: Ca2+ imaging in DRG neurons from TRPA1-null mice; type: cell-based, mouse; conditions: capsaicin 100 nM
Experimental: Ca^2+ Imaging. Neurons were loaded with 1 μM Fluo4-AM (Molecular Probes) for 20 min and washed for a further 10-20 min before recording. The dye was excited at 488±15 nm. Emitted fluorescence was filtered with a 535±25 nm bandpass filter, captured by a SPOT RT digital camera (Diagnostic Instruments) and read into a computer. Analysis was performed offline by using Simple PCI software (Compix Inc.).

mice [6] = test: Flexor reflex response (EMG of semitendinosus muscle) after femoral artery injection; type: in vivo, mouse; conditions: propofol 500 μM, capsaicin 50 μM
Experimental: as §3

hTRPA1 = target: T5, hTRPA1 (Homo sapiens, UniProt O75762); test: AITC-evoked currents in TRPA1-expressing Xenopus oocytes; type: cell-based; conditions: VGAs 0.5-0.65 mM, AITC 10 μM
T5 construct: expressed in transfected cells; host or cells: Xenopus laevis oocytes (injected)
T5 sequence (O75762 whole entry): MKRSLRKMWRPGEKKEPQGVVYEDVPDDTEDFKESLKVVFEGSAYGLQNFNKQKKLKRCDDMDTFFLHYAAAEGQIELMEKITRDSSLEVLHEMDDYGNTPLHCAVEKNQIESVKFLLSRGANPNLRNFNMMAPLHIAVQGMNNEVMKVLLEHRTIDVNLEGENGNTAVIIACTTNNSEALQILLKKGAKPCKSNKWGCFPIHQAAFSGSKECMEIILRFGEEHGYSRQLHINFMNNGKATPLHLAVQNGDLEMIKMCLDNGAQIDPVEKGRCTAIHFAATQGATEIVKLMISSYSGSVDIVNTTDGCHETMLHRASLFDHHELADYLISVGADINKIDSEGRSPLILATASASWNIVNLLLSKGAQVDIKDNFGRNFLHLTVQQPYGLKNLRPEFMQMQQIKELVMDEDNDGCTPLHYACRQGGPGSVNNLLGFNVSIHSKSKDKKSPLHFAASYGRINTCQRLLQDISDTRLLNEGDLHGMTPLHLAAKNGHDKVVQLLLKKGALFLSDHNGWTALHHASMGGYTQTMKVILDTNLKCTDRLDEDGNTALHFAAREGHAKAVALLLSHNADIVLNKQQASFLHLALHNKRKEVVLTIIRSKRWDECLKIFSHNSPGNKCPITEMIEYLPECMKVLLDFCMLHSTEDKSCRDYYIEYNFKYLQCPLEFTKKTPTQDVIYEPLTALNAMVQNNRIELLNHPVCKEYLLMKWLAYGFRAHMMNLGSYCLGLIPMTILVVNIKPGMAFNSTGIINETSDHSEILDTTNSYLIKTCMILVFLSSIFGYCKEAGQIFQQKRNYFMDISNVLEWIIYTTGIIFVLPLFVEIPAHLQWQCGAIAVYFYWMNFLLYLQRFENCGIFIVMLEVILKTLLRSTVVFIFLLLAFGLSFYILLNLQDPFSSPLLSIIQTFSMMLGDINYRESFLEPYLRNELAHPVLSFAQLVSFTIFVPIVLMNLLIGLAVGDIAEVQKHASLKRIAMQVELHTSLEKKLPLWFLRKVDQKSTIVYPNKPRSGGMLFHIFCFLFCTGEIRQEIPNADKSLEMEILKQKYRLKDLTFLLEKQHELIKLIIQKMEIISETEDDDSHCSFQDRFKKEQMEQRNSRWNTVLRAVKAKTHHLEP
Experimental: (§4) Electrophysiology. HEK 293F cells were transfected with rat TRPV1, TRPA1, and TRPM8 (gift of David Julius, University of California, San Francisco). Dorsal root ganglia were cultured from adult mice (C57B16/J wild type and TRPV1-null, and mixed B6/129 background TRPA1-null) in Neurobasal +2% B-27 medium (Invitrogen), 0.1% L-glutamine and 1% penicillin/streptomycin. Whole-cell and single-channel patch-clamp recordings were performed by using an EPC8 amplifier (HEKA Electronics). For whole-cell and excised patch recordings the bath solution contained 140 mMNaCl, 4 mMKCl, 1 mMMgCl2, 1.2 mMCaCl2, 10 mMHepes, 10 mM glucose, pH 7.3. For cell-attached experiments, NaCl was replaced with KCl in the bath solution. The pipette solution contained 140 mM NaCl or KCl, 10 mM Hepes, 5 mM EGTA, pH 7.3. For neuronal recording NaCl was replaced with K-gluconate (plus 1 mMATP, 0.2 mM GTP). Solutions were applied via a gravity-fed system. Separate outlets were used to apply capsaicin and AITC solutions to avoid contamination. Voltage-dependent properties were measured as described in Matt and Ahern, J. Physiol. 585:469-482 (2007). Current-voltage measurements comprised a 200-ms ramp from −150 mV to +200 mV. The baseline currents under control conditions were subtracted. For cell-attached experiments, peak amplitudes were measured from all-points histograms, and open probability was measured as NPo>750 ms. Defolliculated Xenopus laevis oocytes were injected with ≈10 ng of hTRPA1 (gift of Ardem Patapoutian, The Scripps Research Institute, La Jolla, Calif.). Oocytes were placed in a Perspex chamber and continuously superfused (5 ml min^−1) with Ca^2+-free solution containing 100 mM NaCl, 2.5 mM KCl, 5 mM Hepes, 1 mM MgC12 and titrated to pH 7.3 with ˜5 mM NaOH.

[7] = system: AITC-sensitive DRG neurons; test: Voltage- and current-clamp of DRG sensory neurons; type: cell-based, mouse; conditions: camphor 0.5 mM, propofol 100 μM
Experimental: as §4

TRPV1 [8] = target: T2, TRPV1; test: Voltage-clamp of TRPV1-expressing Xenopus oocytes (capsaicin, protons, heat); type: cell-based; conditions: VGAs 0.6 mM, pH 5.5
Experimental: Oocyte electrophysiology. […] Oocytes were placed in a Perspex chamber and continuously superfused (5 ml min-1) with Ca2+-free solution containing (in mM): 100 NaCl, 2.5 KCl, 5 HEPES, 1 MgCl2 and titrated to pH 7.3 with ˜5 mM NaOH. For solutions <pH 6.0, HEPES was replaced with either 5 mM MES or 5 mM sodium citrate. Oocytes were routinely voltage-clamped at −60 mV at 22-23° C. For heat activation, bath temperature was raised from ˜22-50° C. over ˜100 s using an in-line solution heater (Warner Instruments). The temperature was continuously monitored with a probe placed within 2 mm of the oocyte. The temperature-activation threshold was defined as a 20% increase in current above baseline.
Volatile general anesthetics. Saturated stock solutions of volatile general anesthetics (VGAs) were prepared in gas-tight bottles by dissolving excess anesthetic agents in bath solutions and stirring vigorously overnight. From these stock solutions fresh dilutions were made up every 40-60 minutes. Concentrations of volatile anesthetics in the bath solutions were verified using a modified head-space gas chromatography method. The gas chromatograph (Carlo Erba, Milan, Italy) was equipped with a flame ionization detector (FID) and mass spectrometer. The carrier gas was hydrogen (60 kPa column head pressure) and the fused silica capillary column, coated with polysiloxane SE-30, was 25 m×0.25 mm. Injector temperature was 250° C., FID temperature was 300° C. and the oven was maintained at 90° C. Standards were prepared from a mixture of halothane, isoflurane, and sevoflurane dissolved in acetonitrile with enflurane as an internal standard.

[9] = isoflurane 0.9 mM, octanol 1 mM

**Q.** With `Oc1cc2c(cc1O)CN(C(=S)NCCc1ccc(Cl)cc1)CCC2` [capsazepine] as the molecule, how does the “Inhibition of responses to isoflurane after BK” value (TRPV1 [1]; capsazepine 1 μM, 3 of 3 cells) read?
**A.** Its value is “completely inhibited”.

**Q.** With `FC(F)(F)C(Cl)Br` (centres unmarked) [halothane] as the molecule, how does the “Currents evoked after PDBu treatment in TRPV1-expressing HEK293 cells” value (TRPV1 [2]; VGA 0.9 mM, PDBu 500 nM, room temperature (25° C.)) read?
**A.** The value was “activates currents”.

**Q.** And the “1 MAC equivalent aqueous concentration (published conversion factor)” value (shortened to “1 MAC equivalent aqueous concentration”) [3]?
**A.** The value was 0.27 mM.

**Q.** What about the “Activation of TRPA1 currents by VGAs” value (TRPA1) of the same molecule?
**A.** The value was “without effect”.

**Q.** With `CCOC(=O)c1cncn1[C@H](C)c1ccccc1` [etomidate] as the molecule, how does the “Change in V1/2 of TRPM8 (ΔV1/2, increase)” value (TRPM8; 100 μM, n=5-6) read?
**A.** The value was 25.5 mV.

**Q.** Which “Nocifensive behavior in TRPV1-null mice” value (mice [4]) does the source give for `COc1cc(CNC(=O)CCCC/C=C/C(C)C)ccc1O` [capsaicin] here?
**A.** Its value is “but not in TRPV 1-null mice”.

**Q.** And the “Nocifensive behavior in wild-type mice” value (mice [4])?
**A.** Its value is “produced similar behavior”.

**Q.** What about the “TRPA1-deficient cells sensitive to capsaicin” value [5] of the same molecule?
**A.** The value was 43%.

**Q.** And the “Flexor reflex muscle activity in TRPA1+/− mice” value (mice [6])?
**A.** Its value is “robust responses”.

**Q.** What about the “Flexor reflex muscle activity in TRPA1-null mice” value (mice [6]) of the same molecule?
**A.** Its value is “robust responses”.

**Q.** For `CCCCCCCCCCCCO` [dodecanol], which “Shifts in TRPV1 V1/2 and increases in maximal conductance by alcohols” value (“Shifts in TRPV1 V1/2 and increases” below) (TRPV1 [2]; octanol 1 mM) is on record?
**A.** Its value is “without effect”.

**Q.** Which “Effect on AITC-evoked currents” value (hTRPA1) does the source give for `FCOC(C(F)(F)F)C(F)(F)F` [sevoflurane] here?
**A.** The value was “did not”.

**Q.** And the “1 MAC equivalent aqueous concentration” value [3]?
**A.** Its value is 0.35 mM.

**Q.** What about the “Activation of TRPA1 currents by VGAs” value (TRPA1) of the same molecule?
**A.** Its value is “without effect”.

**Q.** Which “Inhibition of propofol-evoked inward currents” value [7] does the source give for `CC12CCC(CC1=O)C2(C)C` (centres unmarked) [camphor] here?
**A.** The value was “blocked; also recorded: sensitive”.

**Q.** With `FC(F)OC(F)(F)C(F)Cl` (centres unmarked) [enflurane] as the molecule, how does the “Enhancement of proton-evoked currents compared with isoflurane and sevoflurane” value (TRPV1 [8]) read?
**A.** Its value is “significantly more”.

**Q.** What about the “1 MAC equivalent aqueous concentration” value [3] of the same molecule?
**A.** Its value is 0.64 mM.

**Q.** With `CCCCCCCCCCO` [decanol] as the molecule, how does the “Shifts in TRPV1 V1/2 and increases” value (TRPV1 [2]; octanol 1 mM) read?
**A.** The value was “smaller response”.

**Q.** Which “Effects at TRPV1 at holding potential −50 mV” value (TRPV1 [2]; [9]) does the source give for `CCCCCCCCO` [octanol] here?
**A.** The value was “negligible effects”.

**Q.** And the “Shifts in TRPV1 V1/2 and increases” value (TRPV1 [2]; octanol 1 mM)?
**A.** Its value is “reached a maximum”.

**Q.** And the “Response relative to 10 μM capsaicin” value (TRPV1 [2]; octanol 1.8 mM, at 200 mV)?
**A.** The value was roughly 40%.

**Q.** And the “Effects at TRPM8 at holding potential −50 mV” value (TRPM8; [9])?
**A.** The value was “negligible effects”.

**Q.** And the “Activation of TRPA1 at holding potential −50 mV” value (TRPA1; [9])?
**A.** Its value is “selectively activated”.

**Q.** What about the “Response relative to 1 mM AITC” value (TRPA1; octanol 1.8 mM, at +200 mV) of the same molecule?
**A.** The value was less than 50%.

**Q.** With `CC(C)(C)c1ccc(/C=C/C(=O)Nc2ccc3c(c2)OCCO3)cc1` [AMG9810] as the molecule, how does the “Inhibition of isoflurane-evoked TRPV1 responses after PDBu” value (TRPV1 [1]) read?
**A.** The value was “inhibits; also recorded: completely inhibited”.

**Q.** With `COC(F)(F)C(Cl)Cl` [methoxyflurane] as the molecule, how does the “Effect on AITC-evoked currents” value (hTRPA1) read?
**A.** The value was “did not”.
